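Where inhibition never reached the appropriate level, the endpoint shown equals the highest concentration tested. Otherwise, values were interpolated linearly from a five-concentration, 48-hour dose response in 96-well plates. GI50 is the concentration that inhibits growth by half.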 Calls of active or inactive are those of the source. Cut-off read from the data, not from the text of the source: active = GI50 up to about 1.1 µM and inactive = higher.
Legend:
Experiment in all cases: NCI tumour cell line growth inhibition, 48 h
[1] = system: 786-0
[2] = system: A498
[3] = system: A549
[4] = system: EKVX
[5] = system: HOP-62
[6] = system: Hs-578T
[7] = system: IGROV-1
[8] = system: M14
[9] = system: MDA-N
[10] = system: NCI/ADR-RES
[11] = system: OVCAR-8
[12] = system: SF-295
[13] = system: SK-MEL-28
[14] = system: SNB-19
[15] = system: T47D
[16] = system: UACC-257
[17] = system: UACC-62
[18] = system: UO-31
[19] = system: NCI-H226

Measured: GI50

N#CCCC1(CCC#N)CCCCCCC(CCC#N)(CCC#N)C(=O)C1=O
inactive: [1] > 100 µM | [2] 50 µM | [3] > 100 µM | [4] > 100 µM | [5] > 100 µM | [6] > 100 µM | [7] > 100 µM | [8] > 100 µM | [9] > 100 µM | [10] > 100 µM | [11] > 100 µM | [12] > 100 µM | [13] > 100 µM | [14] > 100 µM | [15] 11.9 µM | [16] > 100 µM | [17] > 100 µM | [18] 3.08 µM

COc1ccc(Nc2nc3ccccc3n3cccc23)cc1OC
inactive: [1] 15.4 µM | [2] 17.9 µM | [3] 17.5 µM | [4] 25.7 µM | [5] 16.3 µM | [6] 37.9 µM | [7] 20.9 µM | [8] 15.8 µM | [9] 15.9 µM | [10] 17.4 µM | [11] 15.9 µM | [12] 13.2 µM | [13] 15.1 µM | [14] 33.7 µM | [15] 4.06 µM | [16] 16 µM | [17] 14.3 µM | [18] 19.5 µM

O=c1oc2ccccc2cc1-c1nc2ccccc2c(=O)[nH]1
inactive: [1] > 100 µM | [3] > 100 µM | [4] > 100 µM | [5] > 100 µM | [6] > 100 µM | [7] > 100 µM | [8] > 100 µM | [9] > 100 µM | [19] > 100 µM | [10] > 100 µM | [11] > 100 µM | [12] 54 µM | [13] > 100 µM | [14] > 100 µM | [15] > 100 µM | [16] > 100 µM | [17] > 100 µM | [18] > 100 µM

COc1ncc(/C=C2\OC(=O)c3ccccc32)c(OC)n1
inactive: [1] 9.1 µM | [2] 12.3 µM | [3] 17.5 µM | [4] 23.5 µM | [5] 12.1 µM | [6] 10.1 µM | [7] 4.48 µM | [8] 72.3 µM | [9] 50 µM | [19] 66.1 µM | [10] 40.5 µM | [11] 8.13 µM | [12] 4.19 µM | [13] 56.1 µM | [14] 26.5 µM | [15] 23.6 µM | [16] 57.3 µM | [18] 12.9 µM

COc1ccc(-n2c3c(c4cc(O)ccc42)C(=O)c2ccccc2C3=O)cc1
inactive: [1] 1.72 µM | [2] 3.93 µM | [3] 11.7 µM | [4] 4.74 µM | [5] 2.26 µM | [6] 7.24 µM | [7] 3.79 µM | [8] > 100 µM | [9] > 100 µM | [10] 4.61 µM | [11] 2.52 µM | [12] 2.86 µM | [13] 3.08 µM | [14] 6.65 µM | [15] 8.24 µM | [16] > 100 µM | [17] 3.5 µM | [18] 14.7 µM

Cc1cn(CC(=S)NCCc2c[nH]c3ccccc23)c(=O)[nH]c1=O
inactive: [1] > 100 µM | [2] 60.1 µM | [3] 74.1 µM | [4] 17 µM | [5] > 100 µM | [6] 84.1 µM | [7] > 100 µM | [8] > 100 µM | [9] 48 µM | [19] 33.5 µM | [10] 99.1 µM | [13] > 100 µM | [14] > 100 µM | [15] 34.5 µM | [17] 70 µM | [18] 87.1 µM

NCCCCN(CCCN)Cc1ccc2ccccc2c1
inactive: [1] 34.2 µM | [2] 20.7 µM | [3] 51.9 µM | [4] 21.3 µM | [6] 11.3 µM | [7] 25.2 µM | [8] 57 µM | [9] 21.3 µM | [19] 21.5 µM | [10] > 100 µM | [11] 39.4 µM | [12] 44 µM | [13] > 100 µM | [14] 12.9 µM | [15] > 100 µM | [16] > 100 µM | [17] 95.7 µM | [18] 13.7 µM

CC1=NN(c2cccc(Cl)c2)C(=N/c2nc3ccccc3s2)/C1=C\c1cccs1
inactive: [1] 87.3 µM | [2] 28.8 µM | [4] 24.1 µM | [5] 19.5 µM | [6] 26.1 µM | [7] 36 µM | [8] 70.1 µM | [9] 73.8 µM | [19] 36.4 µM | [10] 20.9 µM | [11] 48.3 µM | [12] 25.3 µM | [13] 36.2 µM | [15] 39.4 µM | [16] 37.4 µM | [18] 60.8 µM

CCOC(=O)/C(C(=O)Nc1cccc(Cl)c1)=C(/N)N1CCCC1
inactive: [1] > 100 µM | [2] > 100 µM | [3] > 100 µM | [4] > 100 µM | [5] > 100 µM | [6] > 100 µM | [7] > 100 µM | [8] > 100 µM | [9] > 100 µM | [19] > 100 µM | [10] > 100 µM | [11] > 100 µM | [12] > 100 µM | [13] > 100 µM | [14] > 100 µM | [15] > 100 µM | [16] > 100 µM | [17] > 100 µM

COc1cc(/C=N/c2ccc(Oc3ccc(Cl)cc3)c(Cl)c2)cc(OC)c1OC
inactive: [1] 13.6 µM | [3] 18.5 µM | [4] 21.1 µM | [5] 23.8 µM | [6] 15.8 µM | [7] 21.8 µM | [8] 23.3 µM | [9] 22.6 µM | [19] 26.6 µM | [10] 22.9 µM | [11] 25.8 µM | [12] 18.2 µM | [13] 21.3 µM | [14] 21.8 µM | [15] 3.53 µM | [16] 20.7 µM | [17] 15.3 µM | [18] 11 µM

C[C@H]1CC[C@@H]2[C@@H](C)C[C@H]3[C@@H]4C(C)(C)OC(=O)[C@]4(C)C(=O)[C@@]23C1=O
inactive: [1] > 100 µM | [2] > 100 µM | [3] > 100 µM | [4] > 100 µM | [5] > 100 µM | [6] > 100 µM | [7] > 100 µM | [8] > 100 µM | [9] > 100 µM | [19] > 100 µM | [10] > 100 µM | [11] > 100 µM | [12] > 100 µM | [13] > 100 µM | [14] > 100 µM | [15] 14 µM | [16] > 100 µM | [17] > 100 µM

Nc1ncc(C=O)c(NCC2(CO)CCC2)n1
inactive: [1] > 100 µM | [2] 26.3 µM | [3] 37.5 µM | [5] 31.7 µM | [6] 41.1 µM | [7] 41.5 µM | [9] > 100 µM | [19] 27.7 µM | [10] 65.9 µM | [11] 51.1 µM | [12] 36.8 µM | [15] 14.8 µM | [16] > 100 µM | [17] 12.3 µM | [18] 27.5 µM

CCOC(=O)CCC(NC(=O)C(N)c1ccc([N+](=O)[O-])cc1)C(=O)NC(CCC(=O)OCC)C(=O)OCC (stereo not drawn)
inactive: [1] > 100 µM | [2] > 100 µM | [3] > 100 µM | [4] > 100 µM | [5] > 100 µM | [6] > 100 µM | [7] > 100 µM | [8] > 100 µM | [9] > 100 µM | [19] > 100 µM | [11] > 100 µM | [13] > 100 µM | [14] > 100 µM | [15] 35.6 µM | [16] > 100 µM | [17] > 100 µM | [18] > 100 µM

N=c1oc2ccc(Cl)cc2cc1C(=O)NC1CCCCC1
inactive: [1] 87.9 µM | [2] 63.8 µM | [3] 71.3 µM | [5] > 100 µM | [6] 30.9 µM | [7] 41 µM | [8] > 100 µM | [9] 88.5 µM | [19] 90.4 µM | [10] 81.5 µM | [11] > 100 µM | [13] 98.6 µM | [14] > 100 µM | [15] 66.2 µM | [16] > 100 µM | [17] 59.2 µM

CC(=O)Nc1c(S(=O)(=O)c2ccccc2)c(C)c(C)n1CCN(C)C
inactive: [1] > 100 µM | [2] > 100 µM | [3] > 100 µM | [4] > 100 µM | [6] > 100 µM | [7] > 100 µM | [8] 70.3 µM | [9] > 100 µM | [19] > 100 µM | [10] > 100 µM | [11] > 100 µM | [12] > 100 µM | [13] > 100 µM | [14] > 100 µM | [15] > 100 µM | [16] > 100 µM | [17] > 100 µM | [18] > 100 µM

N=C(N)NC(CC(=O)O)c1ccccc1 (stereo not drawn)
inactive: [1] > 100 µM | [2] > 100 µM | [3] > 100 µM | [4] > 100 µM | [5] > 100 µM | [6] > 100 µM | [7] > 100 µM | [8] > 100 µM | [9] > 100 µM | [10] > 100 µM | [11] > 100 µM | [12] > 100 µM | [13] > 100 µM | [14] > 100 µM | [15] > 100 µM | [16] > 100 µM | [17] > 100 µM | [18] > 100 µM

— ChEMBL document CHEMBL1201862, “PubChem BioAssay data set” (2004)
